Reference: patent publication US20030195183A1, “Method for correcting immune system of live body” (priority 2000, published 2003)
Values joined by “and” are separate entries in the source; they are usually repeats but may differ in a detail not shown here. Equal values may be shown once. “Also recorded” adds a separate entry of the source.

Tests used:
[1] = clinical study, treatment of acute intestinal infections (AII); format: in vivo, human
Method: Efficacy of the preparation in decreasing the gravity of manifestations of various forms of AII was evaluated in accordance with the used program of study with aid of a three-point scale.
After the study was finished, general evaluation of clinical efficacy and safety of the preparation based on a 4-point scale, depending on nosologic forms, was carried out.

phagocytic cells = experiment: phagocytosis in vivo (peritoneal neutrophils and macrophages, St. aureus); parameters: species or system Strain C57BL6 mice
Method: Intraperitoneal injection of 3 ml of 3% peptone was made, and 2 hours later the animals were killed with chloroform. The mice were autopsied in aseptic conditions. Liquid was aspirated from abdominal cavity with a Pasteur's pipette and transferred to centrifuge test tubes; then centrifuging was carried out for 10 minutes at 1,000 rpm. […] Similar volume of Strain 1991 St. aureus was added to cells in a proportion of 1:10 proportion and incubated at 37° C. for 30 minutes. After incubation, smears were prepared on slides, fixed in methanol for 20 minutes and processed with Romanovsky-Giemsa's stain for 30 minutes. For evaluating the phagocytic activity of macrophages, the animals were tested on the third day after administration of peptone. Further testing was carried out similarly with that of neutrophils. The results were evaluated using a microscope at a magnification of 90×. Phagocytic index and phagocytic number were determined.

neutrophils = experiment: neutrophil phagocytosis in vitro; format: cell-based, human; conditions: for Phagocytic Index, Study Group / Phagocytic number, Study Group: individual samples
Method: For evaluating the effect of the preparation on phagocytosis in vitro, blood sample was collected from donor's cubital vein in a test tube containing heparin at a dose of 10 units per ml of blood. 0.8 ml of 3% gelatin prepared based on Medium 199 were added to 2 ml of blood. The test tubes were incubated in a thermostat at 37° C. for 20 minutes. Then the supernatant containing cells was aspirated to a centrifuge tube. Cells were twice washed with Medium 199 with centrifuging at 1,000 rpm. 1 ml of Medium 199 was added to the sediment and neutrophils were counted in Goryaev's chamber. Then, cellular suspension containing 2·10^6 neutrophils in 1 ml was prepared based on Medium 199. Simultaneously, suspension of St. aureus in a concentration of 20·10^6/ml was prepared. After preliminary opsonization with an equal volume of pooled human plasma in a thermostat at 37° C. for 20 minutes, the Staphylococcus suspension was centrifuged and washed with Medium 199. The preparation in 200, 20 and 2 μg/ml concentrations was added to mixture of equal volumes of neutrophils and staphylococci; Medium 199 was added to control test tubes. After incubation in a thermostat at 37° C. for 30 minutes, the test tubes where centrifuged, and preparations were prepared in accordance with the procedure described above. Phagocytic index and phagocytic number for study group were compared with the same for control group.

[2] = tested on: macrophages, interleukins and other acute phase proteins; conditions: e.g. patients with malignant tumors; dose range of 10 to 1000 mg; cited from earlier work
[3] = tested on: humoral immune response to ram erythrocytes; experiment: titers of hemagglutinins, preparation five days after immunization with RE (productive phase); format: in vivo, mice
[4] = anaphylactogenic activity; format: in vivo, guinea pigs
Method: Allergenic effects of the preparation were evaluated on female guinea pigs weighing 250 to 300 g supplied by RF AMS Central Brooder of Laboratory Animals. A total of 70 guinea pigs have been studied. Intraperitoneal and intradermal injections of the preparations were used.
The preparation under study was injected to three groups of guinea pigs in accordance with the following schedule: first 0.1-ml injection of various doses (1 μg, 10 μg and 100 μg) was made subcutaneously; second 0.1-ml injection of the preparation was made on the next day intramuscularly in the thigh; and the third 0.1-ml injection was made one day later. On day 21, the shocking injection of main pharmacological effect with single application was made.

[5] = clinical case, treatment of duodenal ulcer; format: in vivo, human; conditions: Patient K
Method: Apart from the studies on animals described above, clinical studies of immunocorrection activity of amino derivatives of 2,3-dihydrophthalazine-1,4-dione represented by sodium salt of 5-amino-2,3-dihydrophthalazine-1,4-dione in the treatment of various diseases on human, in particular, anti-inflammatory immunocorrecting activity in the treatment of ulcers, were carried out.
Concomitant catarrhal bulbitis was present. The patient partly lost their working capacity due to this disease.
Treatment: Periulceral injection of 100 mg of sodium salt of 5-amino-2,3-dihydrophthalazine-1,4-dione was made. One more injection of the preparation was made on the 7th day. The patient also received the preparation in Almagel suspension and, since the 7th day, in Maalox (in view of constipations). They were simultaneously treated with omeprazol in accordance with usual regimen and, since the 7th day, De-nol with trichopol.

[6] = tested on: humoral immune response to ram erythrocytes; experiment: titers of hemagglutinins after simultaneous administration of preparation and RE (inductive phase); format: in vivo, mice
[7] = Acute gastroenteritis, 4 patients
[8] = Alimentary toxoinfection, 4 patients
[9] = third dose group, dose cell empty
[10] = 0.2 μg, Strain C57BL6 mice, 7 days
[11] = 0.2 μg, Strain C57BL6 mice, 14 days
[12] = 0.2 μg, Strain C57BL6 mice, 21 days
[13] = 0.2 μg, Strain CBA mice, 7 days
[14] = 0.2 μg, Strain CBA mice, 14 days
[15] = 0.2 μg, Strain CBA mice, 21 days
[16] = 2 μg, Strain C57BL6 mice, 7 days
[17] = 2 μg, Strain C57BL6 mice, 14 days
[18] = 2 μg, Strain C57BL6 mice, 21 days
[19] = 20 μg, Strain C57BL6 mice, 7 days
[20] = 20 μg, Strain C57BL6 mice, 14 days
[21] = 20 μg, Strain C57BL6 mice, 21 days
[22] = 20 μg, Strain CBA mice, 14 days
[23] = 20 μg, Strain CBA mice, 21 days
[24] = 200 μg, Strain C57BL6 mice, 7 days
[25] = 200 μg, Strain C57BL6 mice, 14 days
[26] = 200 μg, Strain C57BL6 mice, 21 days
[27] = 200 μg, Strain CBA mice, 7 days
[28] = 200 μg, Strain CBA mice, 14 days
[29] = 200 μg, Strain CBA mice, 21 days
[30] = sensitization 10 μg, shocking injection 100 μg, 10 animals
[31] = sensitization 100 μg, shocking injection 100 μg, 10 animals

## Nc1cccc2c(=O)[nH][nH]c(=O)c12.[K] [potassium salt of 5-amino-2,3-dihydrophthalazine-1,4-dione]
[1]; 20 patients with various forms of AII
  patients with "excellent" or "good" effect: 90 % of patients
[1]; Acute dysentery, 9 patients
  Efficacy of the preparation: Excellent (number of patients): 1
  Efficacy of the preparation: Good (number of patients): 7
  Efficacy of the preparation: Satisfactory (number of patients): 1
[1]; [7]
  Efficacy of the preparation: Excellent (number of patients): 2
  Efficacy of the preparation: Good (number of patients): 1
  Efficacy of the preparation: Satisfactory (number of patients): 1
[1]; [8]
  Efficacy of the preparation: Excellent (number of patients): 1
  Efficacy of the preparation: Good (number of patients): 3
[1]; Salmonellosis, 3 patients
  Efficacy of the preparation: Excellent (number of patients): 1
  Efficacy of the preparation: Good (number of patients): 2
[1]; Total, 20 patients
  Efficacy of the preparation: Excellent (number of patients): 5
  Efficacy of the preparation: Good (number of patients): 13
  Efficacy of the preparation: Satisfactory (number of patients): 2
[1]; of 20 patients
  patients in whom the intoxication syndrome resolved within 1 to 3 days ("complete decrease"): 19 patients
  patients with "insignificant decrease" in the first days and "complete decrease" by the 5th day of treatment: one
[1]; of 20 patients with various forms of AII
  patients with "excellent" or "good" effect: 18 patients
Phagocytic cells; dose 200 μg
  stimulating effect on phagocytic cells / phagocytic activity in vivo: no stimulating effect
Phagocytic cells; doses of 2 ug and 20 ug
  ability of phagocytic cells to intake microbial cells: statistically significant increase
Phagocytic cells; doses ranging from 200 to 2 μg
  phagocytic activity of macrophages in mice: stimulating effects
neutrophils; dose 20 μg
  Phagocytic Index, Study Group, Mean: 7.8 ± 0.04
  Phagocytic number, Study Group, Mean: 89 ± 1.25
  Phagocytic Index, Study Group: 3.9 and 2.8 and 4.6 and 6.8 and 13.2 and 9.1 and 16.3 and 5.2
  Phagocytic number, Study Group: 80 and 96 (2×) and 88 and 94 and 84 (2×) and 86
neutrophils; dose 200 μg
  Phagocytic Index, Study Group, Mean: 6.0 ± 0.04
  Phagocytic number, Study Group, Mean: 77 ± 0.26
  Phagocytic Index, Study Group: 5.6 and 4.7 and 9.1 and 6.4 and 7.4
  Phagocytic number, Study Group: 78 and 85 and 84 and 71 and 67
neutrophils; doses of 20 and 2 μg
  ability of neutrophils population to intake microbial cells: statistically significant increase
  effect on digestive activity of neutrophils: practically no effect
neutrophils; [9]
  Phagocytic Index, Study Group, Mean: 6.0 ± 0.16
  Phagocytic number, Study Group, Mean: 86 ± 0.32
  Phagocytic Index, Study Group: 6.4 (2×) and 4.5 and 7.4 and 5.6
  Phagocytic number, Study Group: 88 and 92 (2×) and 78 and 84

## Nn1[n-]c(=O)c2ccccc2c1=O.O.O.[Na+] [sodium salt of 2-amino-1,2,3,4-tetrahydrophthalazine-1,4-dione, dihydrate]
[2]
  effect in patients with weak cellular immunity reactions: activation of macrophages, interleukins and other acute phase proteins

## Nc1cccc2c(=O)[nH][nH]c(=O)c12.[Na] [sodium salt of 5-amino-2,3-dihydrophthalazine-1,4-dione]
[3]; [10]
  Titers of hemagglutinins: 0
[3]; [11]
  Titers of hemagglutinins: 2 ± 0
[3]; [12]
  Titers of hemagglutinins: 35 ± 10
[3]; [13]
  Titers of hemagglutinins: 0
[3]; [14]
  Titers of hemagglutinins: 9 ± 7
[3]; [15]
  Titers of hemagglutinins: 0
[3]; [16]
  Titers of hemagglutinins: 13 ± 11
[3]; [17]
  Titers of hemagglutinins: 54 ± 50
[3]; [18]
  Titers of hemagglutinins: 226 ± 201
[3]; 2 μg, Strain CBA mice, 7 days
  Titers of hemagglutinins: 10 ± 8
[3]; 2 μg, Strain CBA mice, 14 days
  Titers of hemagglutinins: 173 ± 110
[3]; 2 μg, Strain CBA mice, 21 days
  Titers of hemagglutinins: 22 ± 10
[3]; [19]
  Titers of hemagglutinins: 26 ± 19
[3]; [20]
  Titers of hemagglutinins: 256 ± 0
[3]; [21]
  Titers of hemagglutinins: 304 ± 105
[3]; 20 μg, Strain CBA mice, 7 days
  Titers of hemagglutinins: 0
[3]; [22]
  Titers of hemagglutinins: 236 ± 0
[3]; [23]
  Titers of hemagglutinins: 23 ± 10
[3]; [24]
  Titers of hemagglutinins: 0
[3]; [25]
  Titers of hemagglutinins: 96 ± 42
[3]; [26]
  Titers of hemagglutinins: 120 ± 95
[3]; [27]
  Titers of hemagglutinins: 28 ± 13
[3]; [28]
  Titers of hemagglutinins: 158 ± 120
[3]; [29]
  Titers of hemagglutinins: 47 ± 30
[3]; all doses, Strain CBA mice of high reaction
  effect on productive phase of immune response: suppressive effect
[3]; low reaction Strain C57BL6 mice, 21st day
  level (titers) of hemagglutinins: tendency to increase; also recorded: significant increase
[3]; wide range of doses, Strain CBA mice, 7th and 14th days after immunization
  production of antibodies: inhibition
[4]; demonstrated only for high doses
  expression of anaphylactic activity: very weak
[4]; sensitization 1.0 μg, shocking injection 100 μg, 10 animals
  Number of animals with expression of anaphylactic shock −: 10
[4]; sensitization 10 μg, shocking injection 100 μg
  Weigl's index: 0.2
[4]; [30]
  Number of animals with expression of anaphylactic shock +: 2
  Number of animals with expression of anaphylactic shock −: 7
[4]; sensitization 100 μg, shocking injection 100 μg
  Weigl's index: 0.3
[4]; [31]
  Number of animals with expression of anaphylactic shock +: 1
  Number of animals with expression of anaphylactic shock ++: 1
  Number of animals with expression of anaphylactic shock −: 5
[5]; 2nd day of treatment, with omeprazol and antacids
  pain: Significant weakening
[5]; 7th day
  pain: completely disappeared
[5]; by the 7th day
  decrease in ulcer dimensions: ⅓
[5]; by the 15th day of treatment
  decrease in dimensions of ulcerous defect: 2/3
[5]; by the 21st day, total of 1,000 mg
  scarring of ulcer: completely scarred
[6]; [10]
  Titers of hemagglutinins: 59 ± 58
[6]; [11]
  Titers of hemagglutinins: 50 ± 48
[6]; [12]
  Titers of hemagglutinins: 266 ± 200
[6]; [13]
  Titers of hemagglutinins: 112 ± 106
[6]; [14]
  Titers of hemagglutinins: 168 ± 109
[6]; [15]
  Titers of hemagglutinins: 15 ± 13
[6]; [16]
  Titers of hemagglutinins: 154 ± 57
[6]; [17]
  Titers of hemagglutinins: 256 ± 0
[6]; [18]
  Titers of hemagglutinins: 24 ± 20
[6]; 2 μg, Strain CBA mice, 7 days
  Titers of hemagglutinins: 28 ± 26
[6]; 2 μg, Strain CBA mice, 14 days
  Titers of hemagglutinins: 154 ± 97
[6]; 2 μg, Strain CBA mice, 21 days
  Titers of hemagglutinins: 10 ± 8
[6]; [19]
  Titers of hemagglutinins: 91 ± 64
[6]; [20]
  Titers of hemagglutinins: 512 ± 0
[6]; [21]
  Titers of hemagglutinins: 560 ± 160
[6]; 20 μg, Strain CBA mice, 7 days
  Titers of hemagglutinins: 96 ± 37
[6]; [22]
  Titers of hemagglutinins: 256 ± 0
[6]; [23]
  Titers of hemagglutinins: 83 ± 70
[6]; [24]
  Titers of hemagglutinins: 512 ± 0
[6]; [25]
  Titers of hemagglutinins: 44 ± 42
[6]; [26]
  Titers of hemagglutinins: 160 ± 138
[6]; [27]
  Titers of hemagglutinins: 35 ± 33
[6]; [28]
  Titers of hemagglutinins: 75 ± 59
[6]; [29]
  Titers of hemagglutinins: 46 ± 32
[6]; Strain C57BL6 animals of low reaction, 21st day, 0.2 or 20 μg per mouse
  titers of hemagglutinins (trend): tendency to increase
